This is an account of results in PMC8238948, “Potent inhibitors of toxic alpha-synuclein identified via cellular time-resolved FRET biosensors” (NPJ Parkinson's Disease, 2021).

In data set [1] the test system is SH-SY5Y cells overexpressing unlabeled wild-type (WT) αSN. The experiment in a line: CytoTox-Glo cytotoxicity assay: rescue of αSN-induced cytotoxicity. The data set is classed as cell-based, human. As to conditions: for EC50: read-out: EC50, protection of SH-SY5Y cells from αSN-induced death; for rescue of αSN-induced cytotoxicity: dose response, 48-h exposure; for rescue of toxicity in three-dose preliminary screen: three-dose assay. As for the experimental part: Hit compounds were evaluated for rescue of αSN-induced cytotoxicity in using an SH-SY5Y neuroblastoma cell model of alpha-synucleinopathy[18],[69]–[72]. […] A seven-point CRC for RO, BAY, DEM, and Anle138b (positive control compound[41],[73]) was performed to determine IC50 for each compound. […]
Cell cytotoxicity was measured using the CytoTox-Glo (Promega Corporation) Luminescence Assay Kit. SH-SY5Y human neuroblastoma cells were plated at a density of 5 × 10^6 cells/plate in 100 mm plate (Corning) and transfected with unlabeled WT αSN or equivalent vector-only control for 24 h. The transfected cells were then plated at a density of 5000 cells/well in white solid 96-well plate (Corning) with a total volume of 100 μL, followed by treatment with hit compounds spanning a range of concentrations (0.1 nM to 100 μM), as well as DMSO-only controls, for another 48 h. After incubation, 50 μL of CytoTox-Glo Cytotoxicity Assay Reagent was added to all wells followed by mixing by orbital shaking and incubation in the dark for 15 min at RT. Luminescence readings were measured using a Cytation3 Cell Imaging Multi-Mode Reader luminometer (BioTek). After the first read, 50 μL of Lysis Reagent was added, incubated for 15 min at RT, and a second read performed. Total viable cellular luminance was determined by the difference between the first and second luminescence signal and total cellular viability is determined by normalizing to the no-treatment samples.

Data set [2] has as its target T1, αSN (15 μM monomeric αSN doped with 5% αSN PFF seeds) (Homo sapiens, UniProt P37840).
T1 construct: made in house; host or cells: Escherichia coli BL21(DE3), T7-7 plasmid
As to the kind of experiment: Seeded Thioflavin-T aggregation assay. In kind it is biochemical. The following applies: 15 μM αSN monomer + 5% PFF; for IC50: 37 °C, max ThT intensity. As for the experimental part:
Figure 11 and Supplementary Fig. 23 present results from a dose-response-seeded aggregation assay. Vehicle, control, and hit compounds were incubated with 15 µM αSN(m), doped with 5% freshly sonicated αSN PFF in PBS under mild agitation (Supplementary Fig. 23a). […] Titration of control and hit compounds were run in triplicate; representative traces of hit compounds are illustrated in Fig. 11a with a full summary of each titration detailed in Supplementary Fig. 23c–h. IC50 was determined for each compound by determining the max ThT intensity for each concentration (Fig. 11b).
Seeded ThT aggregation assay was performed using 15 μM monomeric αSN doped with 5% (0.75 μM sonicated αSN pre-formed fibril (PFF) seeds) in a 384-well plate under slow agitation (300 RPM) at 37 °C. a Control samples for the aggregation include PBS (black), αSN monomer (brown), 5% αSN PFF (red), and the 15 μM monomer+5% PFF mixture (orange). Dose-response curves were made with a titration of compounds. […] In contrast, RO and DEM both show potent effects relative to Baicalin and EGCG controls. BAY does have some response, but it lags behind other hit compounds. b Normalizing the initial peak in ThT data allows us to estimate an IC50 for each hit. […] Although there is a small trend with BAY, the data cannot be fit to resolve an IC50.
ThT (Sigma, product no. T3516) was dissolved in PBS buffer and was filtered through a 0.2-µm syringe filter to make a stock solution of 2.5 mM. Working ThT concentration was 20 µM. PFF seeds were produced via constant agitation of 1000 RPM at 37 °C (ThermoMixer-C, Eppendorf, Hauppauge, NY) of 500 µL of 350 µM αSN in PBS in a 2 mL tube for 5 days. PFFs were aliquoted and flash frozen and stored at −80 °C until further use. PFF seeds were rapidly thawed, diluted to 35 µM in PBS, and sonicated 120 pulses at 50% using a probe-tip sonicator following the established protocols. Master mix samples for each of the different ThT assays were prepared and dispensed in triplicate as 50 µL in 384-well flat, black-bottom polypropylene plates (PN 781209, Greiner Bio-One) and sealed with fluorescently transparent film. Conditions for non-seeded, seeded, and cell homogenate assays varied slightly.
Seeded ThT experiments were performed at a lower monomer concentration to preclude spontaneous αSN aggregation during the time course of the experiment. For both seeded and cell homogenate experiments, sample were prepared in PBS + 20 µM ThT with or without 15 µM αSN(m) +/− 5% PFF (0.75 µM). Additional control samples of 15 µM PFF and 0.75 µM PFF were also prepared. All empty wells were filled with PBS for a thermal sink and to help prevent evaporation. Assay plates were prepared as pre-cellular FRET dose response above. Dose response was done across 8 concentrations (10 nM to 50 µM). The assay was run at 37 °C with mild shaking (200 RPM) in a Cytation3 plate reader. The ThT fluorescence was monitored with excitation filter of 450 nm and emission filter of 490 nm. Readings were acquired every 20 min for a minimum of 24 h. Seeded ThT aggregation IC50 values were determined by first normalizing all ThT curves to the maximal signal at plateau for the αSN + 5% PFF + DMSO samples. The normalized fluorescence at each concentration was fit to the Hill equation to resolve an effective IC50 of seeded aggregation inhibition.

Data set [3] addresses T2, A53T αSN oligomer (inter-protomeric) FRET biosensor in HEK293 cells (Homo sapiens, UniProt P37840, A53T).
T2 construct: In addition to full-length αSN fusion constructs, we observe both C-terminally and N-terminally truncated αSN species; expressed in transfected cells; host or cells: HEK293
The experiment in a line: FLT dose response, A53T oligomer (inter-protomeric) FRET biosensor. In kind it is cell-based. As to conditions: 1 nM to 50 μM. The method, then:
Hits from the pilot HTS of the LOPAC library were selected and dispensed into 384-well plates to verify reproducible and specific FLT trends using the WT and A53T oligomer (inter-protomeric) FRET biosensors. Figure 6 presents a subset of these dose-response curves for hit compounds RO, BAY, SB206553, and DEM, along with known control compound EGCG. […] Assay quality was determined by Z′ (Eq. 2) where a Z′ > 0.5 indicates good assay quality. Using EGCG as control compound and the hit DEM, we calculated Z′ value of 0.76 and 0.66, respectively, indicating excellent assay quality.
Fig. 6 FRET dose response of pilot HTS hits. A subset of hits were evaluated using both WT (a) and A53T (b) oligomer biosensor to verify both increased FLT (disrupting αSN–αSN interactions) and decreased FLT (tighter aggregation or remodeled oligomers).
Compounds were tested in a FLT dose-response assay. The compound was dissolved to 10 mM in DMSO, then serially diluted in 96-well mother plates. Each hit was re-screened for FLT dose response across eight concentrations (1 nM to 50 μM). Compounds (0.5 μL) were transferred from mother plates into assay plates using a Mosquito HV liquid handler (TTP Labtech Ltd, UK). The preparations for αSN FRET biosensors were carried out as above.

Entries after “also recorded” stand apart in the source; their conditions may differ. Counter-ions that a name gives are not always drawn. Like-named read-outs stand apart in the source and are kept apart here.

The EC50 is the concentration at which the effect is half-maximal. What is called IC50 is the concentration at which inhibition is half-maximal. `Nc1ccc(-c2nc3ccc(-c4nc5ccc(N)cc5[nH]4)cc3[nH]2)cc1` [RO, Ro 90–7501]: in data set [1] (72-h transfection, 48-h exposure to compound, seven-point CRC), the EC50 is 78 nM. For the same compound, in data set [1], the “rescue of αSN-induced cytotoxicity” value is reported as “clear dose-dependent rescue of toxicity” and the “rescue of toxicity in three-dose preliminary screen” value (“rescue of toxicity” for short) is “strong response”. Further, the half-maximal inhibitory concentration (IC50) in data set [2] came out at 931 nM. Also, the “FLT trend in dose response” value in data set [3] is listed as “reduced FLT”.
As to `CN(C)[C@@H]1C(O)=C(C(N)=O)C(=O)[C@@]2(O)C(O)=C3C(=O)c4c(O)ccc(Cl)c4[C@@H](O)[C@H]3C[C@@H]12` [DEM, Demeclocycline HCl], the concentration giving a half-maximal response (EC50) in data set [1] (Homo sapiens, SH-SY5Y, 72-h transfection, 48-h exposure to compound, seven-point CRC) stood at 65 nM. For the same compound, in data set [1] (Homo sapiens, SH-SY5Y, 72-h transfection, 48-h exposure to compound, seven-point CRC, read-out: IC50, inhibition of αSN-induced toxicity), the half-maximal inhibitory concentration (IC50) came to 65 nM. Besides, in data set [1], the “rescue of αSN-induced cytotoxicity” value is listed as “clear dose-dependent rescue of toxicity” and the “rescue of toxicity” value was “strong response”. For the same compound, the concentration for half-maximal inhibition (IC50) in data set [2] was found to be 1000 nM. In data set [3], the “FLT trend in dose response” value is listed as “reduced FLT”.
As for `COC(=O)C1=C(C)NC(C)=C([N+](=O)[O-])C1c1ccccc1C(F)(F)F` (racemic) [BAY, (±)-Bay K 8644], in data set [1], the “rescue of αSN-induced cytotoxicity” value was “reduced effect; also recorded: did not rescue” and the “rescue of toxicity” value is recorded as “only mild recovery”. In data set [2] (titration up to 50 μM), the “effect on seeded aggregation” value is reported as “cannot be fit”. Further, the “FLT trend in dose response” value in data set [3] is listed as “reduced FLT”.
